The target of this test is T1, KpCld (Klebsiella pneumoniae, UniProt A6TJ49).
T1 sequence (A6TJ49 1-187): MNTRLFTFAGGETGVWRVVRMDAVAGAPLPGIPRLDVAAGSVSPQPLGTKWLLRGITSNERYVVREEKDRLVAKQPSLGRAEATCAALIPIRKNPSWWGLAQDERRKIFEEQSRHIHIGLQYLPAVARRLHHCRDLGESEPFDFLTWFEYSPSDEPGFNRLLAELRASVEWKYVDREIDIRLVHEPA
Particulars: 100 mM phosphate pH 6.0; ferric enzyme; single binding site.

Broadly, the Kd is a measure of binding affinity in units of concentration.

`Br` [Br^−] yielded a Kd of 12.2 mM.

Source of the values: publication PMC5602553 (Biochemistry, 2017).
